Molecules are shown by their SMILES.

This passage reports cytotoxicity results from ChEMBL document CHEMBL3507680, “University of Dundee, Gates Library screen for HepG2 cell viability”.

The nature of this series: Human HepG2 cell viability assay in 384 well format. The settings on record: HepG2 cells, read-out: Inhibition. On the set-up: dose 125 nL, time 70.5 hour; cytotoxicity at 70.5 h: concentration not given beside the values. The class given is toxicity, cell-based.
On to `C1CC(CN2C[C@@H]3C[C@@H](c4nnc(C5CC5)o4)O[C@@H]3C2)C1`, for which the cytotoxicity at 70.5 h was 27.7%.
In the case of `CCC(=O)N1CCC2(CC1)CC(NC(=O)N(C)C)c1cc(C)ccc12` (stereo not given) it was -5.76%; in that of `O=C(c1cccc(F)c1)N1CCc2ncc(Cn3cccn3)n2CC1`, -11%; in that of `O=C(NCCN1CCCC1)c1cc2c(s1)CCN2C(=O)c1ccccc1`, -8.31%.
For `O=C(NCC1CC1)c1cc2c(s1)CCN2C(=O)c1ccc(F)cc1`, the cytotoxicity at 70.5 h was -9.03%.
As to `CCO[C@@H]1CC[C@H]2[C@H]1OCCN2S(=O)(=O)C1CC1`, the cytotoxicity at 70.5 h is -11.4%.
With `CN1CCN(C(=O)c2cccn2C)Cc2cccnc21`, the cytotoxicity at 70.5 h was -4.65%.
For `O=C(NCC1CC1)[C@@H]1C[C@@H]2CCN(Cc3ccccc3)C[C@H]2O1`, the cytotoxicity at 70.5 h was -6.35%.
As for `COCCN1Cc2ccccc2C2(CCN(C(=O)c3ccno3)CC2)C1`, the cytotoxicity at 70.5 h amounted to 2.49%.
As for `O=C([C@H]1CCCO1)N1CCN(Cc2cccnc2)c2ncccc2C1`, the figure is 0.581%; as for `Cc1ccc(N2CCCc3sc(C(=O)NCC4CCCO4)nc32)nn1` (stereo not given), -8.45%.
In the case of `Cc1ccc2c(n1)N(Cc1cccnc1)CCN(C(=O)C1CC=CC1)C2`, the cytotoxicity at 70.5 h was -9.79%.
Turning to `CNC(=O)[C@H]1C[C@@H]2CN(C(=O)c3ccsc3)C[C@@H]2N1S(C)(=O)=O`, the cytotoxicity at 70.5 h is -10.8%.
`CN(Cc1cccnc1)[C@@H]1CN(c2ncc(F)cn2)[C@@H]2CCCO[C@H]12`: the cytotoxicity at 70.5 h is -11.8%.
For the compound `O=C(NCC1CCCO1)c1nc2c(s1)CCCN2C(=O)C1CC1` (stereo not given), the cytotoxicity at 70.5 h was -9.75%.
With `O=C(NCC1CCCO1)c1nc2c(s1)CCCN2CC1CC1` (stereo not given), the cytotoxicity at 70.5 h was -2.36%.
As for `CN(Cc1ccco1)Cc1cncc2c1CCN(S(C)(=O)=O)C2`, the figure is -8.46%.
Regarding `CC(C)CN1CCc2c(CN(C)Cc3ccco3)cncc2C1`, the cytotoxicity at 70.5 h came to 4.58%.
In the case of `Cc1ccc2c(c1)C(NC(=O)N(C)C)CC21CCN(C)CC1` (stereo not given), the cytotoxicity at 70.5 h is -3.53%.
With `Cc1ccc2c(c1)C(NC(=O)N(C)C)CC21CCN(CC2CC2)CC1` (stereo not given), the cytotoxicity at 70.5 h was -9.46%.
On to `O=C(NCC1CCOCC1)[C@H]1C[C@@H]2CCN(Cc3ccccc3)C[C@H]2O1`, for which the cytotoxicity at 70.5 h is -7.17%.
In the case of `Cn1cc(C2CC(=O)NC23CCN(Cc2cccc(F)c2)CC3)cn1` (stereo not given), the cytotoxicity at 70.5 h is -0.799%.
With `O=C(c1ccccn1)N1CCc2ncc(Cn3cccn3)n2CC1`, the cytotoxicity at 70.5 h is -7.08%.
As for `CC(=O)N1CCO[C@H]2[C@H](OCCCn3cccn3)CC[C@@H]21`, the cytotoxicity at 70.5 h was -3.12%.
Regarding `CNC(=O)[C@@H]1C[C@H]2CN(C(=O)c3ccco3)C[C@H]2N1C(C)C`, the cytotoxicity at 70.5 h is -10.2%.
Regarding `CNC(=O)[C@H]1C[C@@H]2CN(C(=O)c3cccnc3)C[C@@H]2N1S(C)(=O)=O`, the cytotoxicity at 70.5 h was -11.1%.
Take `CNC(=O)[C@H]1C[C@@H]2CN(C(=O)c3ccccn3)C[C@@H]2N1S(C)(=O)=O`: the cytotoxicity at 70.5 h was -7.73%.
As to `O=C(N1CCCO1)[C@@]12CCO[C@@H]1CCN(Cc1ccc(F)cc1)C2`, the cytotoxicity at 70.5 h is -1.1%.
For `Cn1cccc1C(=O)N1CCN(Cc2cccnc2)c2ncccc2C1`, the cytotoxicity at 70.5 h is -8.24%.
For `c1cnn(CCCO[C@@H]2CC[C@H]3[C@H]2OCCN3CC2CCOCC2)c1`, the cytotoxicity at 70.5 h was -5.34%.
For `O=C(N1CCCO1)[C@@]12CCO[C@@H]1CCN(Cc1ccccn1)C2`, the cytotoxicity at 70.5 h amounted to 2.18%.
`O=C(c1ccnnc1)N1CCN(Cc2cccnc2)c2ncccc2C1`: the cytotoxicity at 70.5 h was -8.62%.
With `Cc1nc(CN2C(=O)CCC23CCN(Cc2ccoc2)CC3)cs1`, the cytotoxicity at 70.5 h was -4.67%.
As to `CN(Cc1cccnc1)[C@@H]1CN(Cc2cnn(C)c2)[C@@H]2CCCO[C@H]12`, the cytotoxicity at 70.5 h was -6.78%.
For `CN(Cc1cccnc1)[C@@H]1CN(Cc2nccn2C)[C@@H]2CCCO[C@H]12`, the cytotoxicity at 70.5 h is -4.78%.
